Results reported in US7635572B2, “Methods for conducting assays for enzyme activity on protein microarrays” (Life Technologies Corporation, priority 2004, dated 2009).

Columns and labels:
[1] = system: 50 different human kinases; assay: Inhibitor specificity profiling on kinase microarray (Example II, FIG. 3); conditions: 100 μm inhibitor; substrate mixture of MBP, histone and casein; versus control without inhibitor
Protocol: 1 mL of kinase assay buffer for every 12 glass slides to be probed is prepared. 6 μL of gamma-AT^33P (10 μCi/μL) are added to the assay buffer. The slides are placed in 50 mL conical tubes, laying flat, proteins facing up. 70 μL to 150 μL of the kinase assay buffer with gamma-AT^33P are added onto each slide. Using tweezers, the slide is covered with a hybridization slip, making sure that the solution completely covers the microarray. The conical tube is then closed and placed in a 30° C. incubator. Care should be taken that the slide is laying flat. The reaction is then incubated for 90 minutes. Subsequently, the tubes are removed from the incubator. Approximately 40 mL of dH2O are added to each tube and, using the tweezers, the hybridization slip is removed, the tube is closed and inverted several times for 1-2 minutes to rinse the slide inside the conical tube. The wash solution is then discarded. Approximately 40 mL of dH2O are added again to each tube, the tubes are closed and inverted several times for 1-2 minutes, the wash solution is discarded. The slides are then removed from the tubes and place in a slide box and centrifuged at 4000 rpm for 1-2 minutes.
A phosphor screen (suitable for ^33P) is re-activated for each membrane by exposing it to light for at least 30 minutes. […]

[2] = target: EPHB3 (Homo sapiens, UniProt P54753); assay: Dose-response analysis on 10-well kinase microarray (Example III, FIG. 4); type: biochemical; conditions: different inhibitor concentration in each well; substrate MBP, histone, casein
Chain of EPHB3 (P54753 34-998): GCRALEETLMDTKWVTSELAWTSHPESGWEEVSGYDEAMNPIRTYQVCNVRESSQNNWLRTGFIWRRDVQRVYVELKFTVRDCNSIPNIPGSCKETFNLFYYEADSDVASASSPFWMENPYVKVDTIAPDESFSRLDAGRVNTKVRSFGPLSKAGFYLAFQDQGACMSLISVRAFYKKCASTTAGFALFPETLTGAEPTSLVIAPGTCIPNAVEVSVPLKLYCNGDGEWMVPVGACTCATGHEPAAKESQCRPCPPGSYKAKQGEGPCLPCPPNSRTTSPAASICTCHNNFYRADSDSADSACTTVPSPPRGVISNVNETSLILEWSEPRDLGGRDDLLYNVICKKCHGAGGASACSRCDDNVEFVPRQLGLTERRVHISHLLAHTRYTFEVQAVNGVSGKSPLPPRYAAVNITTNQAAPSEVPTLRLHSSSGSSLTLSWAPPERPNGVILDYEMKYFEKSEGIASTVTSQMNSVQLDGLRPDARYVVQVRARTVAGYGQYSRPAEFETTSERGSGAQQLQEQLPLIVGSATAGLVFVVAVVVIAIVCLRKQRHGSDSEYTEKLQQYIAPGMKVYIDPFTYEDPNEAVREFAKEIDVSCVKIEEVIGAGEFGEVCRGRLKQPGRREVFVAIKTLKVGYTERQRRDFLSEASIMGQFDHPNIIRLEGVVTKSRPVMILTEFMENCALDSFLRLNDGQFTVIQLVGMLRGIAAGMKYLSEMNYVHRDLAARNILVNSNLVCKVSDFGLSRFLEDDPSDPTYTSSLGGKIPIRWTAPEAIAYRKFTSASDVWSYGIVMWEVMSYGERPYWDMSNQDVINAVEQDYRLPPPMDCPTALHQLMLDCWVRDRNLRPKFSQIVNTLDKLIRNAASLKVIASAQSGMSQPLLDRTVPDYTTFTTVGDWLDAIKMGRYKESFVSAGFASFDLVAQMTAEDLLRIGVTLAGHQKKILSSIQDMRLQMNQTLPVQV
Protocol: (§1) Microarrays were prepared with 10 wells/slide, wherein the kinases EPHB3, FYN, and PRKCD and their substrate were immobilized in each well. The slide was coated with substrate essentially as described in section 6.1. Subsequently, a gasket with 10 openings was applied to the surface of the slide thereby creating 10 wells, i.e., the gasket provides the barriers between the wells. The accession numbers for the different kinases in the NCBI database are: for FYN: NM_002037; for PRKCD: NM_006254; and for EPHB3: NM_004443.

[3] = target: PRKCD (Homo sapiens, UniProt Q05655); assay: as above; type: biochemical; conditions: different inhibitor concentration in each well; substrate MBP, histone, casein
Chain of PRKCD (Q05655 whole entry): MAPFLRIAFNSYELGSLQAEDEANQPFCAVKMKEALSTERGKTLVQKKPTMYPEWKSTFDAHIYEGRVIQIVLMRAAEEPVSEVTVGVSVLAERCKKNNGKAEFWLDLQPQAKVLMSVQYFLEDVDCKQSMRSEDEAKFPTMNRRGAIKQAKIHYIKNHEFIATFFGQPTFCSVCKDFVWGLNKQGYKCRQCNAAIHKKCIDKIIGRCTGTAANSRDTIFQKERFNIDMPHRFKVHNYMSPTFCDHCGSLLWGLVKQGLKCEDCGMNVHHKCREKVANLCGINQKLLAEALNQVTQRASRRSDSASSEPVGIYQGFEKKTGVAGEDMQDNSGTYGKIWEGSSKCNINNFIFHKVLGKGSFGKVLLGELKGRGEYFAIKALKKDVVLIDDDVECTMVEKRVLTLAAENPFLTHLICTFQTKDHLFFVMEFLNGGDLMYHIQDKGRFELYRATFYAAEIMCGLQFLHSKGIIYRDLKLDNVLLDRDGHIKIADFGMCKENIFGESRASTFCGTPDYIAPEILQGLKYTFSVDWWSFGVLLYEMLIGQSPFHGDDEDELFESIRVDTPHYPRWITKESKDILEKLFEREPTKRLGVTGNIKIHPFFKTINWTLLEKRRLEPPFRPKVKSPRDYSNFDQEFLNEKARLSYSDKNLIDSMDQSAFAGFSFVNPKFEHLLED
Protocol: as §1, with “wells.” for “wells. The accession numbers for the different kinases in the NCBI database are: for FYN: NM_002037; for PRKCD: NM_006254; and for EPHB3: NM_004443.”

[4] = target: T1, FYN (Homo sapiens, UniProt P06241); assay: Global specificity profiling, single point inhibition on kinase microarrays (Example VII); type: biochemical; conditions: substrates histone, casein, MBP, polyEY
T1 sequence (P06241 whole entry): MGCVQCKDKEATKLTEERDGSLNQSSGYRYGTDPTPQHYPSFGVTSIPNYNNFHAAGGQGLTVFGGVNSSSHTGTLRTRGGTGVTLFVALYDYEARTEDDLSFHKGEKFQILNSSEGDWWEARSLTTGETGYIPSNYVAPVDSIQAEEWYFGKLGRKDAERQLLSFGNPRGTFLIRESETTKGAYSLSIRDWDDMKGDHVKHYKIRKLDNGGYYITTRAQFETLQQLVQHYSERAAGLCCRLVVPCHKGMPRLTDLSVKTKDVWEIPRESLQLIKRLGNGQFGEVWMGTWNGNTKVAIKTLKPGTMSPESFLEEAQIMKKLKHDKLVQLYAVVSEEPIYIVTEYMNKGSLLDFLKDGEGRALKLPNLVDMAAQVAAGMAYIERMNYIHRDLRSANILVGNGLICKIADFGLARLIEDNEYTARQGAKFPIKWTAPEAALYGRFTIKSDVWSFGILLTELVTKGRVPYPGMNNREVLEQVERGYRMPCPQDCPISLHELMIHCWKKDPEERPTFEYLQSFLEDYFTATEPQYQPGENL
Protocol: To assess the application of microarray assays for compound profiling, seven known inhibitors (see Table of inhibitors used in global specificity profiling experiment) and one control (2% DMSO) were tested on microarrays printed with a group of kinases (as well as positive and negative controls). […] Twelve spots of each kinase or control were printed on each array, and three arrays were used for each inhibitor. A mixture of generic kinase substrates (histone, casein, MBP, and polyEY) was used in the assay. The average of all signals from the same inhibitor or control experiment was calculated.
To expedite data analysis regarding the kinase families that are inhibited by a particular […], a graphical representation can be constructed of inhibition data for substrates in such a manner that phylogenetically related kinases can be spatially arranged on the graphical representation.

[5] = target: T1, FYN; assay: Dose-response analysis on 10-well kinase microarray (Example III, FIG. 4); type: biochemical; conditions: different inhibitor concentration in each well; substrate MBP, histone, casein
Protocol: as §1, with “wells.” for “wells. The accession numbers for the different kinases in the NCBI database are: for FYN: NM_002037; for PRKCD: NM_006254; and for EPHB3: NM_004443.”

Structure (SMILES)	inhibition of tyrosine kinases [1]	inhibition of EPHB3 (dose-response curve) [2]	inhibition of PRKCD (dose-response curve) [3]	inhibition of FYN in global specificity profiling [4]	inhibition of FYN (dose-response curve) [5]
CC(C)(C)n1nc(-c2ccc(Cl)cc2)c2c(N)ncnc21 [PP2]	strongly inhibited	strongly inhibits	but not the serine/threonine kinase PRKCD		
CN[C@@H]1C[C@H]2O[C@@](C)([C@@H]1OC)n1c3ccccc3c3c4c(c5c6ccccc6n2c5c31)C(=O)NC4 [Staurosporine]				inhibited	strongly inhibits
